Data from ChEMBL document CHEMBL1201862, “PubChem BioAssay data set” (2004).
Calls of active or inactive are those of the source.

Columns and labels:
[1] = target: Likely tRNA 2'-phosphotransferase (Candida albicans (strain SC5314 / ATCC MYA-2876) (Yeast), UniProt Q5A7N4); assay: TPT1 tRNA phosphotransferase inhibitors, dose response, biochemical, fluorescence polarization (AID 2160)
[2] = target: T1, Dual specificity protein phosphatase 6 (Rattus norvegicus, UniProt Q64346); assay: MKP-3 phosphatase inhibitors, primary screen, biochemical, rat enzyme, in vitro (AID 425)
T1 sequence (Q64346 whole entry): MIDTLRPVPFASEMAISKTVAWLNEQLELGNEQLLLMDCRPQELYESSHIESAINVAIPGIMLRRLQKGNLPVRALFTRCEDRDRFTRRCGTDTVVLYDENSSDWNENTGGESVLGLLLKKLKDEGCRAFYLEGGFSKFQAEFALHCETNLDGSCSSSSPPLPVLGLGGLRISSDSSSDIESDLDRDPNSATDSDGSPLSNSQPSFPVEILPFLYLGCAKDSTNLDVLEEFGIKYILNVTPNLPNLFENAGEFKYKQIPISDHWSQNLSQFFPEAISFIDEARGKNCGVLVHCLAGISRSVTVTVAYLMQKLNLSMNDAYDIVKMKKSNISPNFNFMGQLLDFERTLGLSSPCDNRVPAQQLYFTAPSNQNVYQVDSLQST

[3] = target: Guanyl-specific ribonuclease T1 (Aspergillus oryzae (strain ATCC 42149 / RIB 40), UniProt P00651); assay: RNase T1 inhibitors, dose response, counter-screen for TPT1 inhibitor project, biochemical, fluorescence polarization, 1536-well (AID 2167)
Genome polyprotein = Genome polyprotein (Hepatitis C virus, UniProt Q2Q167); assay: HCV core protein dimerization inhibitors, dose response, biochemical, TR-FRET (AID 2159); parameters: species or system Hepacivirus hominis;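 note: blocks dimerization of HCV core protein measured by TR-FRET between tagged core106 pairs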
[4] = target: T2, Dual specificity protein phosphatase 3 (Homo sapiens, UniProt P51452); assay: VHR1 phosphatase inhibitors, primary screen, biochemical, absorbance, uHTS (AID 1654)
[5] = target: Voltage-gated inwardly rectifying potassium channel KCNH2 (Homo sapiens, UniProt Q12809); assay: hERG protection from proarrhythmic block, potency, dose response, cell-based, thallium flux (AID 2121); type: ADME
[6] = target: T2, Dual specificity protein phosphatase 3; assay: VHR1 phosphatase inhibitors, biochemical (AID 1878)
Beta-galactosidase = Beta-galactosidase (Escherichia coli, UniProt Q8VNN2); assay: Dose response counterscreen for EBI2 assay utilizing the enzyme, b-galactosidase.; type: functional
[7] = target: T3, G-protein coupled receptor 183 (Homo sapiens, UniProt P32249); assay: Dose-response confirmation of small molecule antagonists of the EBI2 receptor via a luminescent beta-arrestin assay.; type: functional
[8] = target: T3, G-protein coupled receptor 183; assay: SAR confirmation of small molecule antagonists of the EBI2 receptor via a luminescent beta-arrestin assa.; type: functional
[9] = HEK293 cell cytotoxicity, dose response, cytotoxicity control, luminescence, dry powder, set 12 (AID 743354); type: functional, cell-based
[10] = Mtb BioA inhibitors by displacement, dose response, biochemical, coupled fluorescence displacement, 20-point, dry powder (AID 743357); type: functional
[11] = Plasmodium falciparum Dd2 Sybr green parasite growth Measured in Cell-Based and Microorganism Combination System Using Plate Reader - 2153-01_Inhibitor_Dose_DryPowder_Activity_Set3.; type: functional
[12] = HepG2 cell cytotoxicity, dose response, cytotoxicity control, plate reader, dry powder samples (AID 1159569); type: functional, cell-based;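 note: inhibitor potency with signal falling toward the positive control level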
[13] = P. falciparum 3D7-ScDHODH growth inhibitors, dose response, SYBR Green, dry powder samples (AID 1159570); type: functional, cell-based;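 note: parasite growth measured after 72 hours of compound exposure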
[14] = P. falciparum Dd2 growth inhibitors, dose response, SYBR Green, cherry-picked samples (AID 1159567); type: functional, cell-based
[15] = P. falciparum Dd2 growth inhibitors, dose response, SYBR Green, dry powder samples (AID 1159566); type: functional, cell-based;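 note: potency for growth inhibition with lower SYBR green DNA signal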
[16] = P. falciparum ATP4 D1247Y mutant growth inhibitors, dose response, NITD609-resistant line, SYBR Green, dry powder (AID 1159571); type: functional, cell-based;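 note: parasites synchronized at ring stage by sorbitol before testing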
[17] = P. falciparum Dd2 blood-stage growth inhibition, dose response, SYBR Green fluorescence, erythrocytes, dry powder, set 2 (AID 1159574); type: functional, cell-based
SN12K1 = assay: cells; type: functional; conditions: Homo sapiens
[18] = CellTiter-Glo luminescent dose response of DLD-1 viability loss (AID 1117352); type: functional
[19] = RKO cell viability reduction, dose response, CellTiter-Glo luminescence (AID 1117322); type: functional
[20] = cytotoxicity toward Colo320 cells – cell-based, CellTiter-Glo luminescence, IC50, dose response (AID 1117334); type: functional; conditions: COLO 320
[21] = HeLa 2N DNA content increase, dose response, cell-based, IC50 (AID 1117349); type: functional
BJ [22] = assay: cytotoxicity toward BJ-TERT-LT-ST fibroblasts, dose response, cell-based, RAS-independent, luminescence (AID 1935); type: functional; conditions: Homo sapiens;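 note: BJ fibroblasts immortalized with TERT plus LT and ST oncogenes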
[23] = cytotoxicity toward HCT116 cells – cell-based, CellTiter-Glo luminescence, IC50, dose response (AID 1117332); type: functional; conditions: HCT-116
[24] = HCT116 cell viability decrease, GSK3B pretreatment – CellTiter-Glo, IC50, dose response (AID 1117339); type: functional; conditions: HCT-116
Streptococcus = assay: Group A Streptococcus viability loss, dose response, counter-screen for streptokinase expression inhibitor project, luminescence, BacTiterGlo (AID 1915); type: functional, organism-based;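 note: potency for reduction of bacterial viability or growth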
[25] = cytotoxicity toward HT-29 cells – cell-based, CellTiter-Glo luminescence, IC50, dose response (AID 1117330); type: functional
BJ [26] = assay: cytotoxicity toward BJ-TERT fibroblasts, dose response, cell-based, RAS-independent, luminescence (AID 1933); type: functional; conditions: Homo sapiens
[27] = SNU-C1 cell viability reduction, dose response, CellTiter-Glo luminescence (AID 1117323); type: functional, cell-based
BJ [28] = assay: cells; type: functional, cell-based; conditions: Homo sapiens
[29] = test system: Streptococcus sp. 'group A'; assay: growth inhibition of control SK(-) GAS strain, dose response, counter-screen for streptokinase expression inhibitor project, luminescence, kanamycin, BacTiterGlo, confirmation (AID 1900); type: functional, organism-based
[30] = Concentration-dependent survival of SW480 colon cancer line, luminescence detection with CellTiter-Glo, half-maximal inhibitory concentration (AID 1117338); type: functional
[31] = HeLa 4N DNA content increase, dose response, cell-based, IC50 (AID 1117351); type: functional
P388 = assay: cells; type: functional; conditions: Mus musculus
HEK293 = assay: inhibitors of LMP1-driven NF-kB reporter, dose response, cell-based, HEK293, luciferase, cherry-pick (AID 588343); type: functional; conditions: Homo sapiens
[32] = cytotoxicity toward DRD oncogenic fibroblasts, dose response, cell-based, non-viral oncogenic, luminescence (AID 1934); type: functional; conditions: Homo sapiens
P388/ADR = assay: cells; type: functional; conditions: Mus musculus
[33] = off-target signal loss in HeLa-CEM21 co-culture – HeLa F-luc CTL cells, cherry-picked, counter-screen for HIV-1 Env fusion inhibitor project, dose response (AID 652040); type: functional, cell-based;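 note: potency for signal decrease marking cytotoxic or nonspecific inhibition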
[34] = Dose-response inhibition of insulin secretion in a rat insulinoma line at 5 mM glucose (AID 1117331); type: functional, cell-based; conditions: INS-1E
[35] = Glucagon-like peptide 1 release potency, NCI-H716 cell line, dose-response, half-maximal inhibitory concentration (AID 1117344); type: functional, cell-based
[36] = half-maximal inhibitory concentration for glucagon-like peptide-1 release, STC-1 cell line, dose-response (AID 1117345); type: functional, cell-based

T3 sequence (P32249 whole entry): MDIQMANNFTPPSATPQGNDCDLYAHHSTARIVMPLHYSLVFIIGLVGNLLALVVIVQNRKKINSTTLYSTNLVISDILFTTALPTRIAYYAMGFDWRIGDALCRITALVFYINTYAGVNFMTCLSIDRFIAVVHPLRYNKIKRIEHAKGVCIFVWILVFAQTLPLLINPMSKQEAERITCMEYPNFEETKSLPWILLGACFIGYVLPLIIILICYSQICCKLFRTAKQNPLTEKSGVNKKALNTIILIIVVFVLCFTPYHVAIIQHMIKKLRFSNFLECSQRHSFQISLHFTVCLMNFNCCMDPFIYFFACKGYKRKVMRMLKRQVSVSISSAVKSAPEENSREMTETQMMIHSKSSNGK
T2 sequence (P51452 whole entry): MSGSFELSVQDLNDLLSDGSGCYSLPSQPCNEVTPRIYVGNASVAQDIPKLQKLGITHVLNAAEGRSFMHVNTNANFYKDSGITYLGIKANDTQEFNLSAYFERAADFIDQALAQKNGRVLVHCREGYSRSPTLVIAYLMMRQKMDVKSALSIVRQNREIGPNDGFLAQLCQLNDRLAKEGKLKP
Likely tRNA 2'-phosphotransferase, sequence (Q5A7N4 whole entry): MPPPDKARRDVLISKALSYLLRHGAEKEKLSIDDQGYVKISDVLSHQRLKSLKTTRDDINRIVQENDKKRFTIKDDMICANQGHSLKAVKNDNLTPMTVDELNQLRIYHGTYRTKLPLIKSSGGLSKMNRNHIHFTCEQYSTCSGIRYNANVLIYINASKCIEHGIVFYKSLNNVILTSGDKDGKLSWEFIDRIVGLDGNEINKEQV
Voltage-gated inwardly rectifying potassium channel KCNH2, sequence (Q12809 whole entry): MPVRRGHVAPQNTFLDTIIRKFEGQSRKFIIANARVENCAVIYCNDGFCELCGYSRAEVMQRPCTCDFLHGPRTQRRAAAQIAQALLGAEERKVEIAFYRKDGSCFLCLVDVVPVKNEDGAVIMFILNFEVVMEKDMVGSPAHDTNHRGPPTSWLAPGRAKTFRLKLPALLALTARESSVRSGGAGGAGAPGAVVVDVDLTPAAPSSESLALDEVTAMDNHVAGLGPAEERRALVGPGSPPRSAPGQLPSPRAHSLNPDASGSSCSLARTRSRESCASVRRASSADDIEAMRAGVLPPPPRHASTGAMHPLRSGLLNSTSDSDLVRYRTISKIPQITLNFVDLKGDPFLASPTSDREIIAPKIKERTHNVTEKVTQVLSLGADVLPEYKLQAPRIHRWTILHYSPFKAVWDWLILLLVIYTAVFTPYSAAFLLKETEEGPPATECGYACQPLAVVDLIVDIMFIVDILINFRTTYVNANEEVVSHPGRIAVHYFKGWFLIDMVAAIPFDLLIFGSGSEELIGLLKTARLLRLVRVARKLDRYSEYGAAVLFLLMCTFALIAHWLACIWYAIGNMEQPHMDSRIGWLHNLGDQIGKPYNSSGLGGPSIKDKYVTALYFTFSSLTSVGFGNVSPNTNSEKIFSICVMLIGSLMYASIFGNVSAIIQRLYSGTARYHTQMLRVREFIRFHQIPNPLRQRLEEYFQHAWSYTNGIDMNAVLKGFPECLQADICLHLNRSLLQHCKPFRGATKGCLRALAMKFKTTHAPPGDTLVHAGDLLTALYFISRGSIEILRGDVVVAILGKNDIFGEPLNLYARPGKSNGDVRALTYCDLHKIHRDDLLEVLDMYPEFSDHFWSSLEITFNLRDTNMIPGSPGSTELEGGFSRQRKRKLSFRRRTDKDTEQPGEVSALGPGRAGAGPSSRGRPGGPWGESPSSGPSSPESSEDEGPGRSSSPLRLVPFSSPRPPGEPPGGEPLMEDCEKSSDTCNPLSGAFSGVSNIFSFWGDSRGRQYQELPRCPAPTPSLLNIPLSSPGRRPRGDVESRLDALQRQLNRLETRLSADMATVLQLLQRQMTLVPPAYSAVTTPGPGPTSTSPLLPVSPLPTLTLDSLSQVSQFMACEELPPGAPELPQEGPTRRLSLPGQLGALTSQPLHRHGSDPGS
Beta-galactosidase, sequence (Q8VNN2 whole entry): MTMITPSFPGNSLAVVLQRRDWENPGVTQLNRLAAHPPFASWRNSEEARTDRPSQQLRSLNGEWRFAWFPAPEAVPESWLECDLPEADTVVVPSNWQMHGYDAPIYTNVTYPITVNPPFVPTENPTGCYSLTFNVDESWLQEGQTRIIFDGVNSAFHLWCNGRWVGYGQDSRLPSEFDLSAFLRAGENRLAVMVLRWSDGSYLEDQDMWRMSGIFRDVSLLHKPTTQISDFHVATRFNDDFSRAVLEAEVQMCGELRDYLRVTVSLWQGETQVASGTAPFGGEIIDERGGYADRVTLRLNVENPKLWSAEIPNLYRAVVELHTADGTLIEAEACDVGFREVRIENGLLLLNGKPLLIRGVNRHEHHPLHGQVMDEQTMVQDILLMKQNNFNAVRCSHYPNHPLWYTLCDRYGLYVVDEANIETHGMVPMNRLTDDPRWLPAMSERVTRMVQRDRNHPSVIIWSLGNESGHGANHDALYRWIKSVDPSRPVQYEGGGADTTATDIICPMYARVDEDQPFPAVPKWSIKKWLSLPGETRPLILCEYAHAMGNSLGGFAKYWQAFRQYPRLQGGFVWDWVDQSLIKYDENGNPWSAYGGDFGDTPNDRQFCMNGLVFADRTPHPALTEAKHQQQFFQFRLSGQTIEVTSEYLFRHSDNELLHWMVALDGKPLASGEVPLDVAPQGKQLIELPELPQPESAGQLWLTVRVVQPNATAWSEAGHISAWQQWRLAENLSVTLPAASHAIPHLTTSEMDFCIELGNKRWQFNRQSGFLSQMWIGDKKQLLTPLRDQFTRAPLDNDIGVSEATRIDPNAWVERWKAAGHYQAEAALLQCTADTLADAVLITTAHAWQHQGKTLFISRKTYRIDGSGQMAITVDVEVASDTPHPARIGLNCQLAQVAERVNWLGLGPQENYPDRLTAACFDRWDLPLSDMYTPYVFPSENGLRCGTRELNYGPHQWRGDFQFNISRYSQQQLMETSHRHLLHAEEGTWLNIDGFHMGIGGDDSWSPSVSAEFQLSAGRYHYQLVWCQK
Guanyl-specific ribonuclease T1, sequence (P00651 whole entry): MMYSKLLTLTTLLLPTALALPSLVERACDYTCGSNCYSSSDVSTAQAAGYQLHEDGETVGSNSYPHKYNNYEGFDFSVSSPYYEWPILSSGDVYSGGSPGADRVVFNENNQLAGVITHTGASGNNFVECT
Genome polyprotein, sequence (Q2Q167 whole entry): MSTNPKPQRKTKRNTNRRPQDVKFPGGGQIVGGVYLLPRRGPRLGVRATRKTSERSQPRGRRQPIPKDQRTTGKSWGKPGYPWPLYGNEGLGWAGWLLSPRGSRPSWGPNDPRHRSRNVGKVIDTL

## Cc1ccccc1N1C(=O)/C(=C/c2ccco2)C(=O)NC1=S
[1]
  IC50: 2440 nM (active)
[2]
  IC50: < 1230 nM (not active)
[3]
  IC50: > 55700 nM (not active)
Genome polyprotein
  IC50: 4780 nM (active)
[4]
  IC50: < 1230 nM (inactive)
[5]
  EC50: 710 nM (active)
[6]
  IC50: < 1230 nM (inactive)

## O=C(/C=C/c1ccc(F)cc1)N1CCN(S(=O)(=O)/C=C/c2ccccc2)CC1
Beta-galactosidase
  IC50: > 80000 nM (inactive)
[7]
  IC50: 6.75 nM (active)
[8]
  IC50: 3.59 nM (active)

## CN1c2ccc(-c3cccc(F)c3)cc2[C@H]2[C@H](CCN2C(=O)CCCCCCN)[C@H]1CO
[9]
  AC50: > 52000 nM (inactive)
[10]
  AC50: 13000 nM (active)

## CO[C@@H]1CN(C)C(=O)c2ccc(NC(=O)C3CC3)cc2OC[C@@H](C)N(Cc2cc(F)ccc2F)C[C@H]1C
[11]
  AC50: 2080 nM (active)
[12]
  AC50: 76200 nM (active)
[13]
  AC50: 5770 nM (active)
[14]
  AC50: 1220 nM (active)
[15]
  AC50: 957 nM (active)
[16]
  AC50: 1790 nM (active)

## COc1ccc(NC(=O)N2CCCCN3[C@H](CO)[C@H](c4ccc(C#Cc5ccccc5)cc4)[C@@H]3C2)cc1
[12]
  AC50: 85100 nM (active)
[13]
  AC50: 3.46 nM (active)
[14]
  AC50: < 300 nM (active)
[15]
  AC50: 3.84 nM (active)
[17]
  AC50: 6.52 nM (active)
[16]
  AC50: 3.09 nM (active)

## O=c1[nH]c(=O)n([C@H]2C[C@H](O)[C@@H](CO)O2)cc1F [FLOXURIDINE]
SN12K1
  GI50: 340 nM (active)
[18]
  IC50: 1 nM (active)
[19]
  IC50: 1 nM (active)
[20]
  IC50: > 20000 nM (inactive)
[21]
  IC50: > 10000 nM (inactive)
BJ [22]
  EC50: > 150000 nM (inconclusive)
[23]
  IC50: 1 nM (active)
[24]
  IC50: 1 nM (active)
Streptococcus
  EC50: 1340 nM (active)
[25]
  IC50: > 20000 nM (inactive)
BJ [26]
  EC50: 57000 nM (active)
[27]
  IC50: > 20000 nM (inactive)
BJ [28]
  EC50: 596 nM (active)
[29]
  EC50: 916 nM (active)
[30]
  IC50: > 20000 nM (inactive)
[31]
  IC50: > 10000 nM (inactive)
P388
  GI50: 250 nM (active)
HEK293
  AC50: 61.9 nM (active)
[32]
  EC50: > 150000 nM (not active)
P388/ADR
  GI50: 250 nM (active)
[33]
  AC50: > 70000 nM (inactive)

## NC(=O)c1cccnc1 [NIACINAMIDE]
[34]
  IC50: > 33300 nM (inactive)
[35]
  IC50: > 40000 nM (inactive)
[36]
  IC50: > 40000 nM (inactive)
